# Assay results from patent US6727245B2, “Heterobicyclic derivatives” (Fujisawa Pharmaceutical Co., Ltd., priority 1994, dated 2004).
row,Structure (SMILES),melting point
1,"COC(=O)c1ccc2c(ccn2-c2cccc(-n3c(=O)c(Cc4cccnc4)nc4cccnc43)c2)c1 [Example 54(25), 4-[3-(5-Methoxycarbonylindol-1-yl)phenyl]-2-(3-pyridylmethyl)-3-oxo-3,4-dihydropyrido[2,3-b]pyrazine]",193 to 197 °C
2,"O=c1c(Cc2cccnc2)nc2cccnc2n1-c1cccc(-c2cnc3ccccc3c2)c1 [Example 54(26), 4-[3-(3-Quinolyl)phenyl]-2-(3-pyridylmethyl)-3-oxo-3,4-dihydropyrido[2,3-b]pyrazine]",237 °C
3,"COc1ccc(-c2cccc(-n3c(=O)c(Cc4cccnc4)nc4cccnc43)c2)cc1OC1CCCC1 [Example 54(27), 4-[3-(3-Cyclopentyloxy-4-methoxyphenyl)phenyl]-2-(3-pyridylmethyl)-3-oxo-3,4-dihydropyrido[2,3-b]pyrazine]",109 to 111 °C
4,"COC(=O)c1cccc(-c2cccc(-n3c(=O)c(Cc4cccnc4)nc4cccnc43)c2)c1 [Example 54(28), 4-[3-(3-Methoxycarbonylphenyl)phenyl]-2-(3-pyridylmethyl)-3-oxo-3,4-dihydropyrido[2,3-b]pyrazine]",179 to 181 °C
5,"COC(=O)/C=C/c1cccc(-n2c(=O)c(Cc3cccnc3)nc3cccnc32)c1 [Example 54(29), 4-[3-[ (E)-2-Methoxycarbonylvinyl]phenyl]-2-(3-pyridylmethyl)-3-oxo-3,4-dihydropyrido[2,3-b]pyrazine]",180 to 181 °C
6,"O=c1c(Cc2cccnc2)nc2cccnc2n1-c1cccc(-c2cncc3ccccc23)c1 [Example 54(30), 4-[3-(4-Isoquinolyl)phenyl]-2-(3-pyridylmethyl)-3-oxo-3,4-dihydropyrido[2,3-b]pyrazine]",157 to 163 °C
7,"CC(=O)Nc1cccc(-c2cccc(-n3c(=O)c(Cc4cccnc4)nc4cccnc43)c2)c1 [Example 54(31), 4-[3-(3-Acetamidophenyl)phenyl]-2-(3-pyridylmethyl)-3-oxo-3,4-dihydropyrido[2,3-b]pyrazine]",188 to 194 °C
8,"O=c1c(Cc2ccccc2)nc2cccnc2n1-c1cccc(NS(=O)(=O)c2ccccc2)c1 [Example 68(13), 2-Benzyl-4-(3-phenylsulfonylaminophenyl)-3-oxo-3,4-dihydropyrido[2,3-b]pyrazine]",199 to 211 °C
9,"O=C(Nc1ccccc1)Nc1cccc(-n2c(=O)c(Cc3ccccc3)nc3ccc(Sc4ccccc4)nc32)c1 [Example 68(14), 2-Benzyl-6-phenylthio-4-[3-(3-phenylureido)phenyl]-3-oxo-3,4-dihydropyrido[2,3-b]pyrazine]",183 to 185 °C
10,"O=c1c(Cc2ccccc2)nc2cccnc2n1-c1cccc(-n2cccc2)c1 [Example 68(15), 2-Benzyl-4-[3-(pyrrol-1-yl)phenyl]-3-oxo-3,4-dihydropyrido[2,3-b]pyrazine]",169 to 170 °C
11,"O=c1c(Cc2ccc(O)cc2)nc2cccnc2n1-c1cccc(-n2cccc2)c1 [Example 68(16), 2-(4-Hydroxybenzyl)-4-[3-(pyrrol-1-yl)phenyl]-3-oxo-3,4-dihydropyrido[2,3-b]pyrazine]",263 °C
12,"COC(=O)c1cccn1-c1cccc(-n2c(=O)c(Cc3ccccc3)nc3cccnc32)c1 [Example 68(17), 2-Benzyl-4-[3-(2-methoxycarbonylpyrrol-1-yl)phenyl]-3-oxo-3,4-dihydropyrido[2,3-b]pyrazine]",190 to 191 °C
13,"CNC(=O)Nc1cccc(-c2cccc(-n3c(=O)c(Cc4cccnc4)nc4cccnc43)c2)c1 [Example 72, 4-[3-[3-(3-Methylureido)phenyl]phenyl]-2-(3-pyridylmethyl)-3-oxo-3,4-dihydropyrido[2,3-b]pyrazine]",248 to 252 °C
14,"CCNC(=O)Nc1cccc(-c2cccc(-n3c(=O)c(Cc4cccnc4)nc4cccnc43)c2)c1 [Example 73, 4-[3-[3-(3-Ethylureido)phenyl]phenyl]-2-(3-pyridylmethyl)-3-oxo-3,4-dihydropyrido[2,3-b]pyrazine]",257 to 258 °C
15,"O=C(Nc1ccccc1)Nc1cccc(-c2cccc(-n3c(=O)c(Cc4cccnc4)nc4cccnc43)c2)c1 [Example 74, 4-[3-[3-(3-Phenylureido)phenyl]phenyl]-2-(3-pyridylmethyl)-3-oxo-3,4-dihydropyrido[2,3-b]pyrazine]",234 °C
16,"Nc1cccc(-c2cccc(-n3c(=O)c(Cc4cccnc4)nc4cccnc43)c2)c1 [Example 75, 4-[3-(3-Aminophenyl)phenyl]-2-(3-pyridylmethyl)-3-oxo-3,4-dihydropyrido[2,3-b]pyrazine]",202 to 204 °C
17,"O=C(Nc1cccc(-c2cccc(-n3c(=O)c(Cc4cccnc4)nc4cccnc43)c2)c1)c1ccc2ccccc2c1 [Example 76(2), 4-[3-[3-(2-Naphthoylamino)phenyl]phenyl]-2-(3-pyridylmethyl)-3-oxo-3,4-dihydropyrido[2,3-b]pyrazine]",202 to 210 °C
18,"O=C(Nc1cccc(-c2cccc(-n3c(=O)c(Cc4cccnc4)nc4cccnc43)c2)c1)c1cc2ccccc2s1 [Example 76(3), 4-[3-[3-[(Benzo[b]thiophen-2-yl)carbonylamino]phenyl]phenyl]-2-(3-pyridylmethyl)-3-oxo-3,4-dihydropyrido[2,3-b]pyrazine]",216 to 218 °C
19,"O=C(Nc1cccc(-c2cccc(-n3c(=O)c(Cc4cccnc4)nc4cccnc43)c2)c1)c1cnc2ccccc2n1 [Example 76(4), 4-[3-[3-(2-Quinoxalinylcarbonylamino)phenyl]phenyl]-2-(3-pyridylmethyl)-3-oxo-3,4-dihydropyrido[2,3-b]pyrazine]",206 to 209 °C
20,"CCC(=O)Nc1cccc(-c2cccc(-n3c(=O)c(Cc4cccnc4)nc4cccnc43)c2)c1 [Example 76(5), 4-[3-(3-Propionylaminophenyl)phenyl]-2-(3-pyridylmethyl)-3-oxo-3,4-dihydropyrido[2,3-b]pyrazine]",223 to 224 °C
21,"O=C(/C=C/c1ccncc1)Nc1cccc(-c2cccc(-n3c(=O)c(Cc4cccnc4)nc4cccnc43)c2)c1 [Example 76(6), 4-[3-[3-[(E)-3-(4-Pyridyl)acryloylamino]phenyl]phenyl]-2-(3-pyridylmethyl)-3-oxo-3,4-dihydropyrido[2,3-b]pyrazine]",185 to 191 °C
22,"CCOC(=O)/C=C/C(=O)Nc1cccc(-c2cccc(-n3c(=O)c(Cc4cccnc4)nc4cccnc43)c2)c1 [Example 77(3), 4-[3-[3-[(E)-3-Ethoxycarbonylacryloylamino]phenyl]phenyl]-2-(3-pyridylmethyl)-3-oxo-3,4-dihydropyrido[2,3-b]pyrazine]",130 to 160 °C (dec.)
23,"O=C(O)c1ccccc1C(=O)Nc1cccc(-c2cccc(-n3c(=O)c(Cc4cccnc4)nc4cccnc43)c2)c1 [Example 81, 4-[3-[3-(2-carboxybenzoylamino)phenyl]phenyl]-2-(3-pyridylmethyl)-3-oxo-3,4-dihydropyrido[2,3-b]pyrazine]",150 °C (dec.)
24,"O=C(O)CCC(=O)Nc1cccc(-c2cccc(-n3c(=O)c(Cc4cccnc4)nc4cccnc43)c2)c1 [Example 82(1), 4-[3-[3-(3-Carboxypropanoylamino)phenyl]phenyl]-2-(3-pyridylmethyl)-3-oxo-3,4-dihydropyrido[2,3-b]pyrazine]",193 to 199 °C
25,"O=C(/C=C(\C(=O)O)c1ccccc1)Nc1cccc(-c2cccc(-n3c(=O)c(Cc4cccnc4)nc4cccnc43)c2)c1 [Example 82(2), 4-[3-[3-[(Z)-3-Carboxy-3-phenylacryloylamino]phenyl]phenyl]-2-(3-pyridylmethyl)-3-oxo-3,4-dihydropyrido[2,3-b]pyrazine]",189 to 198 °C (dec.)
26,"O=C(Nc1cccc(-c2cccc(-n3c(=O)c(Cc4cccnc4)nc4cccnc43)c2)c1)C(F)(F)F [Example 83, 4-[3-(3-trifluoroacetylaminophenyl)phenyl]-2-(3-pyridylmethyl)-3-oxo-3,4-dihydropyrido[2,3-b]pyrazine]",138 to 144 °C
27,"O=c1c(Cc2ccccc2)nc2cccnc2n1-c1cccc(-n2c(Br)ccc2Br)c1 [Example 113, 2-Benzyl-4-[3-(2,5-dibromopyrrol-1-yl)phenyl]-3-oxo-3,4-dihydropyrido[2,3-b]pyrazine]",90 °C (dec.)
